Data published in article PMC7343282, “Tissue Distribution of Several Series of Cationic Surfactants in Rainbow Trout (Oncorhynchus mykiss) Following Exposure via Water” (Environmental Science & Technology, 2020).

Assays:
[1] = system: rainbow trout (Oncorhynchus mykiss); assay: Contribution of tissues to fish body burden; assay type: in vivo; conditions: for Contribution of Blood to the fish's body burden / Contribution of Gills to the fish's body burden / Contribution of Liver to the fish's body burden / Contribution of Mucus to the fish's body burden / Contribution of Other tissue (all apart from blood, liver, gills and skin; muscle concentration assumed) to body burden / Contribution of Skin to the fish's body burden: fraction; for % contribution to body burden, Gills / % contribution to body burden, Mucus / % contribution to body burden, Liver / % contribution to body burden, Skin / % contribution to body burden, Muscle: mean across fish, Figure 1; for % contribution to body burden, Liver / % contribution to body burden, Skin / % contribution to body burden, Muscle: Q10, Q14 maximum estimates; for % contribution to body burden, Muscle: includes all tissues not specifically analyzed
Description: To calculate the quantity of the test chemical in the different tissues, the amount of each tissue in the fish was estimated and multiplied by the concentration in that tissue. The test chemical quantities in the different tissues were then summed to give the body burden in each fish. The total weight of the fish and the weight of the liver and gills were available from the dissection (Table S16). For skin and mucus, the estimated outer surface area of the fish was used. We note that the distinction between mucus and skin is an operational one determined by the extraction method; mucus can be viewed as a more readily extracted fraction of the test chemical residues at the fish surface. The volume of blood was taken as 0.0495 mL g^–1 fish.[30] The remaining tissue (difference between the weight of the whole fish and the weight of liver, gills, skin, and blood) was assumed to have the concentration measured in the muscle. The contribution of the different tissues to the body burden is given for each fish in Table S17, and the average contribution across all fish is plotted in Figure 1. All of the tissues, with the exception of blood, contribute at least 10% of the body burden for at least half of the test chemicals. There is no consistent negative correlation between the fraction of chemical associated with blood, muscle, and liver (tissues where the residue originates entirely from systemic uptake) and alkyl chain length (a measure of hydrophobicity). Thus, although adsorption to fish surfaces appears to play a significant role, its contribution to body burden cannot be simply predicted from surfactant hydrophobicity. In the following, we examine uptake in individual tissues.

[2] = Tissue-blood distribution coefficients and volume of distribution; conditions: whole blood, pH 7.5, Estimated volume of distribution Vd, residues in muscle, liver and blood only
Procedure: Blood is the transport medium for contaminants in fish, and the tissue distribution is governed by tissue–blood distribution coefficients. […] Muscle–blood and liver–blood distribution coefficients (DMus–B and DL–B) were calculated as the quotients of the concentrations in the respective tissues and blood. This approach implies that there was an internal test chemical steady state in the fish.
The experimental data also allow estimation of the volume of distribution (Vd), an important parameter for extrapolating in vitro measures of e.g. metabolism to in vivo. In the context of quantitative in vitro–in vivo extrapolation for fish, Vd is defined as the quotient of the concentration in fish and the concentration in blood and describes the equivalent volume of blood that would contain the same amount of the chemical as 1 kg of fish.[40]Vd was estimated using the residues that had been clearly taken up systemically (i.e., those in muscle, liver and blood).

[3] = system: rainbow trout (Oncorhynchus mykiss); assay: Surface area-normalized mucus-water and gill-water distribution coefficients; conditions: for Gill-water distribution coefficient (DG-W): from average concentrations in gills and water, calculated gill surface; for Mucus-water distribution coefficient (DMuc-W): from average concentrations in mucus and water
Procedure: For each mixture, the syringe pump was started in an aquarium containing no fish. After 16 h, to allow the concentrations to stabilize, 12 rainbow trout were added. After 7 d of exposure, the fish in the exposure aquaria as well as several unexposed (control) fish were sacrificed. Following stunning, blood was collected with a heparinized syringe from the caudal vein into a 2 mL Eppendorf tube. The fish were weighed and photographed, and the length was measured. The outer surface area of the fish was estimated from the fish weight according to O’Shea et al.[27] [drawing 1] 1
The gill surface area was estimated from the fish weight according to the equation specific for O. mykiss from a report by Hughes,[28] taken from ref ([29]) [drawing 2] 2
Because the mass of extracted mucus was not determined, the concentrations in mucus were normalized to the estimated fish’s total surface area (eq 1) excluding the head, which was not rinsed.
Surface area-normalized gill–water distribution coefficients (DG–W) were calculated from the average concentrations measured in gills and water, and a calculated gill surface based on rainbow trout specific scaling factors (eq 2). […] Unlike the skin, the gills were not rinsed with methanol, so the gill samples included gill mucus.

For `CCCCCCCCCCCCN` [P12, Dodecylamine], the “Contribution of Blood to the fish's body burden” value (“Contribution of Blood” below) ([1]; Fish #1) was 0.014, the “Contribution of Gills to the fish's body burden” value (“Contribution of Gills” below) ([1]; Fish #1) was 0.34 and the “Contribution of Liver to the fish's body burden” value (from here on “Contribution of Liver”) ([1]; Fish #1) was 0.16. For the same compound, the “Contribution of Mucus to the fish's body burden” value (“Contribution of Mucus” for short) ([1]; Fish #1) was 0.19, the “Contribution of Other tissue (all apart from blood, liver, gills and skin; muscle concentration assumed) to body burden” value (“Contribution of Other tissue” for short) ([1]; Fish #1) was 0.15 and the “Contribution of Skin to the fish's body burden” value (shortened to “Contribution of Skin”) ([1]; Fish #1) was 0.14. For the same compound, the “Contribution of Blood” value ([1]; Fish #2) was 0.015, the “Contribution of Gills” value ([1]; Fish #2) was 0.24 and the “Contribution of Liver” value ([1]; Fish #2) was 0.22. For the same compound, the “Contribution of Mucus” value ([1]; Fish #2) was 0.12, the “Contribution of Other tissue” value ([1]; Fish #2) was 0.16 and the “Contribution of Skin” value ([1]; Fish #2) was 0.25. The “Contribution of Blood” value ([1]; Fish #3) was 0.017, the “Contribution of Liver” value ([1]; Fish #3) was 0.20 and the “Contribution of Mucus” value ([1]; Fish #3) was 0.11. The “Contribution of Other tissue” value ([1]; Fish #3) was 0.16, the “Contribution of Skin” value ([1]; Fish #3) was 0.23 and the “Contribution of Blood” value ([1]; Fish #4) was 0.011. The “Contribution of Gills” value ([1]; Fish #4) was 0.26, the “Contribution of Liver” value ([1]; Fish #4) was 0.24 and the “Contribution of Mucus” value ([1]; Fish #4) was 0.14. The “Contribution of Other tissue” value ([1]; Fish #4) was 0.16, the “Contribution of Skin” value ([1]; Fish #4) was 0.19 and the “Contribution of Blood” value ([1]; Fish #5) was 0.010. The “Contribution of Gills” value ([1]; Fish #5) was 0.32, the “Contribution of Liver” value ([1]; Fish #5) was 0.12 and the “Contribution of Mucus” value ([1]; Fish #5) was 0.17. For the same compound, the “Contribution of Other tissue” value ([1]; Fish #5) was 0.20, the “Contribution of Skin” value ([1]; Fish #5) was 0.18 and the “Contribution of Blood” value ([1]; Fish #6) was 0.018. The “Contribution of Gills” value ([1]; Fish #6) was 0.26, the “Contribution of Liver” value ([1]; Fish #6) was 0.16 and the “Contribution of Mucus” value ([1]; Fish #6) was 0.18. The “Contribution of Other tissue” value ([1]; Fish #6) was 0.12, the “Contribution of Skin” value ([1]; Fish #6) was 0.26 and the “Contribution of Blood” value ([1]; Mean) was 0.014. The “Contribution of Gills” value ([1]; Mean) was 0.28, the “Contribution of Liver” value ([1]; Mean) was 0.19 and the “Contribution of Mucus” value ([1]; Mean) was 0.15. The “Contribution of Other tissue” value ([1]; Mean) was 0.16, the “Contribution of Skin” value ([1]; Mean) was 0.21 and the “% contribution to body burden, Gills” value [1] was 28%. The “% contribution to body burden, Mucus” value [1] was 15%, the “% contribution to body burden, Liver” value [1] was 19% and the “% contribution to body burden, Skin” value [1] was 21%. For the same compound, the “% contribution to body burden, Muscle” value [1] was 16%, the Vd at 7 d ([2]; Mean) was 1.29 L/kg and the Vd at 7 d ([2]; exposed fish #1) was 1.13 L/kg. It also gave a Vd at 7 d ([2]; exposed fish #2) of 1.31 L/kg, a Vd at 7 d ([2]; exposed fish #3) of 1.07 L/kg and a Vd at 7 d ([2]; exposed fish #4) of 1.87 L/kg. For the same compound, the Vd at 7 d ([2]; exposed fish #5) was 1.56 L/kg, the Vd at 7 d ([2]; exposed fish #6) was 0.79 L/kg and the “Gill-water distribution coefficient (DG-W)” value [3] was 28 mLcm-2. For the same compound, the “Mucus-water distribution coefficient (DMuc-W)” value [3] was 16.3 mL cm-2.

For `CCCCCCCCCN(C)C` [T9, N,N-dimethylnonylamine], the “Contribution of Blood” value ([1]; Fish #1) was 0.045, the “Contribution of Gills” value ([1]; Fish #1) was 0.11 and the “Contribution of Liver” value ([1]; Fish #1) was 0.08. For the same compound, the “Contribution of Mucus” value ([1]; Fish #1) was 0.12, the “Contribution of Other tissue” value ([1]; Fish #1) was 0.35 and the “Contribution of Skin” value ([1]; Fish #1) was 0.30. For the same compound, the “Contribution of Blood” value ([1]; Fish #2) was 0.059, the “Contribution of Gills” value ([1]; Fish #2) was 0.14 and the “Contribution of Liver” value ([1]; Fish #2) was 0.08. For the same compound, the “Contribution of Mucus” value ([1]; Fish #2) was 0.12, the “Contribution of Other tissue” value ([1]; Fish #2) was 0.39 and the “Contribution of Skin” value ([1]; Fish #2) was 0.22. The “Contribution of Blood” value ([1]; Fish #3) was 0.075, the “Contribution of Liver” value ([1]; Fish #3) was 0.11 and the “Contribution of Mucus” value ([1]; Fish #3) was 0.09. The “Contribution of Other tissue” value ([1]; Fish #3) was 0.43, the “Contribution of Skin” value ([1]; Fish #3) was 0.17 and the “Contribution of Blood” value ([1]; Fish #4) was 0.046. The “Contribution of Gills” value ([1]; Fish #4) was 0.15, the “Contribution of Liver” value ([1]; Fish #4) was 0.04 and the “Contribution of Mucus” value ([1]; Fish #4) was 0.14. The “Contribution of Other tissue” value ([1]; Fish #4) was 0.38, the “Contribution of Skin” value ([1]; Fish #4) was 0.24 and the “Contribution of Blood” value ([1]; Fish #5) was 0.056. The “Contribution of Gills” value ([1]; Fish #5) was 0.14, the “Contribution of Liver” value ([1]; Fish #5) was 0.18 and the “Contribution of Mucus” value ([1]; Fish #5) was 0.08. The “Contribution of Other tissue” value ([1]; Fish #5) was 0.35, the “Contribution of Skin” value ([1]; Fish #5) was 0.19 and the “Contribution of Blood” value ([1]; Fish #6) was 0.062. The “Contribution of Gills” value ([1]; Fish #6) was 0.11, the “Contribution of Liver” value ([1]; Fish #6) was 0.26 and the “Contribution of Mucus” value ([1]; Fish #6) was 0.08. For the same compound, the “Contribution of Other tissue” value ([1]; Fish #6) was 0.33, the “Contribution of Skin” value ([1]; Fish #6) was 0.17 and the “Contribution of Blood” value ([1]; Mean) was 0.057. The “Contribution of Gills” value ([1]; Mean) was 0.13, the “Contribution of Liver” value ([1]; Mean) was 0.13 and the “Contribution of Mucus” value ([1]; Mean) was 0.10. For the same compound, the “Contribution of Other tissue” value ([1]; Mean) was 0.37, the “Contribution of Skin” value ([1]; Mean) was 0.21 and the “Share of body burden in interior tissues (blood, liver, and muscle)” value ([1]; in vivo) was “more than half”. The “% contribution to body burden, Gills” value [1] was 13%, the “% contribution to body burden, Mucus” value [1] was 10% and the “% contribution to body burden, Liver” value [1] was 13%. For the same compound, the “% contribution to body burden, Skin” value [1] was 21%, the “% contribution to body burden, Muscle” value [1] was 37% and the “Gill-water distribution coefficient (DG-W)” value [3] was 0.30 mLcm-2. The “Mucus-water distribution coefficient (DMuc-W)” value [3] was 0.29 mL cm-2.
